Laboratory results as given in patent US10954269B2, “Anti-inflammatory tripeptides” (Dr. August Wolff Gmbh & Co. KG Arzneimittel, priority 2013, dated 2021).
[ ]: non-standard residue; d: D form.

Test system: human keratinocyte cell line (HaCaT)
Test: Cytokine secretion on protein level in activated human keratinocyte cell line HaCaT (13-plex FACS / Luminex, supernatant)
Format: cell-based
Outline: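 Cytokine protein in supernatant is read by multiplex FACS or Luminex. Tripeptide-treated HaCaT cells or blood-derived human T-cells are stimulated beforehand with PMA/Ionomycin or IFN-γ. The most relevant analytes are IL-1, IL-2, IL-6, IL-12p70, IL-17, IFN-γ and TNF-α, sampled 48 h and 72 h after stimulation.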

[1] = HaCaT stimulated with IFN-γ, 10^−9M
[2] = HaCaT stimulated with IFN-γ, 10^−9M, excluded from the final assessment
[3] = HaCaT stimulated with IFN-γ, substance 10^−9M
[4] = HaCaT stimulated with PBS, 10^−9M
[5] = HaCaT stimulated with PBS, 10^−9M, excluded from the final assessment
[6] = HaCaT stimulated with PBS, substance 10^−9M
[7] = HaCaT stimulated with PMA/Ionomycin, 10^−9M
[8] = HaCaT stimulated with PMA/Ionomycin, 10^−9M, excluded from the final assessment
[9] = HaCaT stimulated with PMA/Ionomycin, substance 10^−9M

H-Lys-[dP]-Thr-OH [K(D)PT, reference compound]
IL-1 cytokine concentration [1]: 257.77 pg/mL
IL-2 cytokine concentration [1]: 129.65 pg/mL
IL-4 cytokine concentration [1]: 84.61 pg/mL
IL-5 cytokine concentration [1]: 166.92 pg/mL
IL-6 cytokine concentration [1]: 728.31 pg/mL
IL-9 cytokine concentration [1]: 83.09 pg/mL
IL-10 cytokine concentration [1]: 73.19 pg/mL
IL-13 cytokine concentration [1]: 59.62 pg/mL
IL-17 cytokine concentration [1]: 664.43 pg/mL
TNF-α cytokine concentration [1]: 100.07 pg/mL
IL-12p70 cytokine concentration [2]: 0 pg/mL
IL-22 cytokine concentration [2]: 0 pg/mL
IL-1 cytokine concentration [3]: 0 pg/mL
IL-2 cytokine concentration [3]: 131.59 pg/mL
IL-4 cytokine concentration [3]: 52.4 pg/mL
IL-5 cytokine concentration [3]: 0 pg/mL
IL-6 cytokine concentration [3]: 238.12 pg/mL
IL-9 cytokine concentration [3]: 0 pg/mL
IL-10 cytokine concentration [3]: 0 pg/mL
IL-12 cytokine concentration [3]: 0 pg/mL
IL-12p70 cytokine concentration [3]: 0 pg/mL
IL-13 cytokine concentration [3]: 0 pg/mL
IL-17 cytokine concentration [3]: 112.82 pg/mL
IL-22 cytokine concentration [3]: 0 pg/mL
TNF-α cytokine concentration [3]: 50.44 pg/mL
IFN-γ cytokine concentration [4]: 395.55 pg/mL
IL-1 cytokine concentration [4]: 228.99 pg/mL
IL-2 cytokine concentration [4]: 201.9 pg/mL
IL-4 cytokine concentration [4]: 85.48 pg/mL
IL-5 cytokine concentration [4]: 201.01 pg/mL
IL-6 cytokine concentration [4]: 72.95 pg/mL
IL-9 cytokine concentration [4]: 132.74 pg/mL
IL-10 cytokine concentration [4]: 125.52 pg/mL
IL-13 cytokine concentration [4]: 60.72 pg/mL
IL-17 cytokine concentration [4]: 618.22 pg/mL
TNF-α cytokine concentration [4]: 90.41 pg/mL
IL-12p70 cytokine concentration [5]: 0 pg/mL
IL-22 cytokine concentration [5]: 10982.2 pg/mL
IFN-γ cytokine concentration [6]: 99.65 pg/mL
IL-1 cytokine concentration [6]: 65.11 pg/mL
IL-2 cytokine concentration [6]: 0 pg/mL
IL-4 cytokine concentration [6]: 144.86 pg/mL
IL-5 cytokine concentration [6]: 0 pg/mL
IL-6 cytokine concentration [6]: 78.34 pg/mL
IL-9 cytokine concentration [6]: 5.27 pg/mL
IL-10 cytokine concentration [6]: 31.43 pg/mL
IL-12 cytokine concentration [6]: 0 pg/mL
IL-12p70 cytokine concentration [6]: 0 pg/mL
IL-13 cytokine concentration [6]: 0 pg/mL
IL-17 cytokine concentration [6]: 0 pg/mL
IL-22 cytokine concentration [6]: 0 pg/mL
TNF-α cytokine concentration [6]: 9.34 pg/mL
IFN-γ cytokine concentration [7]: 736.13 pg/mL
IL-1 cytokine concentration [7]: 212.49 pg/mL
IL-2 cytokine concentration [7]: 179.25 pg/mL
IL-4 cytokine concentration [7]: 70.92 pg/mL
IL-5 cytokine concentration [7]: 157.36 pg/mL
IL-6 cytokine concentration [7]: 130.87 pg/mL
IL-9 cytokine concentration [7]: 147.79 pg/mL
IL-10 cytokine concentration [7]: 84.32 pg/mL
IL-13 cytokine concentration [7]: 62.95 pg/mL
IL-17 cytokine concentration [7]: 487.56 pg/mL
TNF-α cytokine concentration [7]: 116.88 pg/mL
IL-12p70 cytokine concentration [8]: 0 pg/mL
IL-22 cytokine concentration [8]: 10698.1 pg/mL
IFN-γ cytokine concentration [9]: 0 pg/mL
IL-1 cytokine concentration [9]: 0 pg/mL
IL-2 cytokine concentration [9]: 0 pg/mL
IL-4 cytokine concentration [9]: 129.6 pg/mL
IL-5 cytokine concentration [9]: 0 pg/mL
IL-6 cytokine concentration [9]: 282.85 pg/mL
IL-9 cytokine concentration [9]: 0 pg/mL
IL-10 cytokine concentration [9]: 118.77 pg/mL
IL-12 cytokine concentration [9]: 0 pg/mL
IL-12p70 cytokine concentration [9]: 0 pg/mL
IL-13 cytokine concentration [9]: 0 pg/mL
IL-17 cytokine concentration [9]: 0 pg/mL
IL-22 cytokine concentration [9]: 0 pg/mL
TNF-α cytokine concentration [9]: 0 pg/mL

alpha-melanocyte-stimulating hormone [α-MSH, reference compound]
IL-1 cytokine concentration [1]: 238.96 pg/mL
IL-2 cytokine concentration [1]: 119.87 pg/mL
IL-4 cytokine concentration [1]: 70.08 pg/mL
IL-5 cytokine concentration [1]: 184.1 pg/mL
IL-6 cytokine concentration [1]: 750.84 pg/mL
IL-9 cytokine concentration [1]: 83.5 pg/mL
IL-10 cytokine concentration [1]: 82.71 pg/mL
IL-13 cytokine concentration [1]: 55.34 pg/mL
IL-17 cytokine concentration [1]: 598.13 pg/mL
TNF-α cytokine concentration [1]: 67.75 pg/mL
IL-12p70 cytokine concentration [2]: 0 pg/mL
IL-22 cytokine concentration [2]: 0 pg/mL
IL-1 cytokine concentration [3]: 0 pg/mL
IL-2 cytokine concentration [3]: 0 pg/mL
IL-4 cytokine concentration [3]: 0 pg/mL
IL-5 cytokine concentration [3]: 0 pg/mL
IL-6 cytokine concentration [3]: 202.37 pg/mL
IL-9 cytokine concentration [3]: 0 pg/mL
IL-10 cytokine concentration [3]: 0 pg/mL
IL-12 cytokine concentration [3]: 0 pg/mL
IL-12p70 cytokine concentration [3]: 0 pg/mL
IL-13 cytokine concentration [3]: 0 pg/mL
IL-17 cytokine concentration [3]: 95.44 pg/mL
IL-22 cytokine concentration [3]: 0 pg/mL
TNF-α cytokine concentration [3]: 45.91 pg/mL
IFN-γ cytokine concentration [4]: 365.47 pg/mL
IL-1 cytokine concentration [4]: 271.66 pg/mL
IL-2 cytokine concentration [4]: 251.78 pg/mL
IL-4 cytokine concentration [4]: 56.84 pg/mL
IL-5 cytokine concentration [4]: 150.8 pg/mL
IL-6 cytokine concentration [4]: 76.75 pg/mL
IL-9 cytokine concentration [4]: 124.69 pg/mL
IL-10 cytokine concentration [4]: 107.72 pg/mL
IL-13 cytokine concentration [4]: 65.47 pg/mL
IL-17 cytokine concentration [4]: 544.96 pg/mL
TNF-α cytokine concentration [4]: 97.16 pg/mL
IL-12p70 cytokine concentration [5]: 0 pg/mL
IL-22 cytokine concentration [5]: 9847.56 pg/mL
IFN-γ cytokine concentration [6]: 0 pg/mL
IL-1 cytokine concentration [6]: 0 pg/mL
IL-2 cytokine concentration [6]: 0 pg/mL
IL-4 cytokine concentration [6]: 118.52 pg/mL
IL-5 cytokine concentration [6]: 0 pg/mL
IL-6 cytokine concentration [6]: 15.22 pg/mL
IL-9 cytokine concentration [6]: 9.51 pg/mL
IL-10 cytokine concentration [6]: 39.54 pg/mL
IL-12 cytokine concentration [6]: 0 pg/mL
IL-12p70 cytokine concentration [6]: 0 pg/mL
IL-13 cytokine concentration [6]: 0 pg/mL
IL-17 cytokine concentration [6]: 0 pg/mL
IL-22 cytokine concentration [6]: 0 pg/mL
TNF-α cytokine concentration [6]: 0 pg/mL
IFN-γ cytokine concentration [7]: 617.26 pg/mL
IL-1 cytokine concentration [7]: 143.16 pg/mL
IL-2 cytokine concentration [7]: 98.72 pg/mL
IL-4 cytokine concentration [7]: 72.6 pg/mL
IL-5 cytokine concentration [7]: 131.91 pg/mL
IL-6 cytokine concentration [7]: 113.54 pg/mL
IL-9 cytokine concentration [7]: 105.55 pg/mL
IL-10 cytokine concentration [7]: 111.19 pg/mL
IL-13 cytokine concentration [7]: 55.34 pg/mL
IL-17 cytokine concentration [7]: 338.9 pg/mL
TNF-α cytokine concentration [7]: 103.98 pg/mL
IL-12p70 cytokine concentration [8]: 0 pg/mL
IL-22 cytokine concentration [8]: 9995.76 pg/mL
IFN-γ cytokine concentration [9]: 0 pg/mL
IL-1 cytokine concentration [9]: 0 pg/mL
IL-2 cytokine concentration [9]: 0 pg/mL
IL-4 cytokine concentration [9]: 113.12 pg/mL
IL-5 cytokine concentration [9]: 0 pg/mL
IL-6 cytokine concentration [9]: 179.03 pg/mL
IL-9 cytokine concentration [9]: 0 pg/mL
IL-10 cytokine concentration [9]: 93.2 pg/mL
IL-12 cytokine concentration [9]: 0 pg/mL
IL-12p70 cytokine concentration [9]: 0 pg/mL
IL-13 cytokine concentration [9]: 0 pg/mL
IL-17 cytokine concentration [9]: 0 pg/mL
IL-22 cytokine concentration [9]: 0 pg/mL
TNF-α cytokine concentration [9]: 0 pg/mL
